This experiment concerns the target T1, mutant B-RAF (Homo sapiens, UniProt P15056, V600E).
T1 construct: purchased Upstate (Charlottesville, Va.)
Briefly: RAF biochemical assay (MEK-1 phosphorylation, anti-phospho MEK1/2 detection). The conditions noted are these: for inhibition at 10 µM: read-out: Mutant B-RAF % inhibition. The method, then:
Materials: The RAF kinases and the anti-phospho MEK1/2 antibody were from Upstate (Charlottesville, Va.). The RAF substrate used was full length N-terminal GST-MEK-1, which was expressed in E. coli and purified in-house by HPLC. All proteins were aliquoted and stored at −80° C.
Compounds were serially diluted in assay buffer containing 1% DMSO and 20 μL of test compound at a concentration 3-fold more than the final concentration, and were added to a polypropylene V-well reaction plate. Vehicle control wells received buffer only with DMSO at equivalent concentrations to the test wells. […] These reaction plates were incubated at room temperature for 30 minutes. Capture of MEK-1 was initiated by transferring 50 μl of the reaction mixture to a Nunc Maxisorp™ microplate that is designed for non-specific protein capture. After 30 minute capture of MEK-1 at room temperature, this plate was washed with TBST (6×200 μL/well) to fully terminate the reaction. The plate was then blocked for 1 hour by the addition of 100 μl/well of Superblock™ in phosphate buffered saline (PBS) blocking reagent. Plate was again washed with TBST (6 times with 200 μL/well), followed by the addition of 70 μL/well of Upstate anti-phospho MEK 1/2 diluted 1:1000 in Pierce Superblock (PBS). After a 60 minute incubation, this plate was washed with TBST (6 times with 200 μL/well), and 70 μL of the secondary antibody (Pierce Alkaline Phosphatase tagged goat anti-rabbit) prepared at 1:4000 in Superblock, were added. After a 45 minute incubation at room temperature, the wells of the microplate were washed with TBST (6 times with 200 μL/well), and thereafter 100 μl/well of Attophos™ fluorescent alkaline phosphatase substrate was added according to the manufacturer's instructions (JBL Scientific).

Our source for the IC50 and inhibition values is US7501430B2 (ArQule, Inc., priority 2006, dated 2009).

Read-outs that look alike come from different tables or passages of the source.

T1 sequence (P15056 whole entry V600E): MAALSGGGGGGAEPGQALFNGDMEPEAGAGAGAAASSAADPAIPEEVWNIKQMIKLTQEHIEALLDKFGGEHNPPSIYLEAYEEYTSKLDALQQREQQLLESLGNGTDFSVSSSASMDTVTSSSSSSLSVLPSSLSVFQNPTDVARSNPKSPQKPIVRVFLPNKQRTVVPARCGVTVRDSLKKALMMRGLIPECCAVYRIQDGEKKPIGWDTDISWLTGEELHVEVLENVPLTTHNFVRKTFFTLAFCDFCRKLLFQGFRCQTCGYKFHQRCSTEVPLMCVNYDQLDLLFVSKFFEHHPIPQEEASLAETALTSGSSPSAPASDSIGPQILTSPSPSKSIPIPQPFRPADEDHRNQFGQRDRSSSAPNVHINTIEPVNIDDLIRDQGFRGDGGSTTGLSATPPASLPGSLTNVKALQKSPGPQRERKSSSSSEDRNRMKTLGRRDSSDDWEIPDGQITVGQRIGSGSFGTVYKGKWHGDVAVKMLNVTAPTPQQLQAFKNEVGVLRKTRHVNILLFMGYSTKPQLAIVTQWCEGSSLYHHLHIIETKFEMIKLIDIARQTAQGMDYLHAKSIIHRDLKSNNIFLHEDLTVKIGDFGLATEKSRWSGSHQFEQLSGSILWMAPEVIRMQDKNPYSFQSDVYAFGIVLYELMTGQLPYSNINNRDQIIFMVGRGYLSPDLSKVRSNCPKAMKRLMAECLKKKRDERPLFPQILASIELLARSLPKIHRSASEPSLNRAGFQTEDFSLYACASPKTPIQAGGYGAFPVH

As usually defined, the IC50 is the concentration that gives 50% inhibition. In the case of `COc1ccc(-c2nc3sccn3c2-c2ccnc(NC3CCCN(S(=O)(=O)c4ccc(Cl)cc4)C3)n2)cc1OC` (stereo in doubt) [Example 135, N-{(3R)-1-[(4-chlorophenyl)sulfonyl]piperidin-3-yl}-4-[6-(3,4-dimethoxyphenyl)imidazo[2,1-b][1,3]thiazol-5-yl]pyrimidin-2-amine], the IC50 (read-out: Mutant B-RAF IC50) was determined as 696 nM.

Consider `O=S(=O)(c1ccc(F)cc1)N1CCCC(Nc2nccc(-c3c(-c4ccc(F)cc4)nc4sccn34)n2)C1` (stereo not drawn) [Example 2, 4-[6-(4-fluorophenyl)imidazo[2,1-b][1,3]thiazol-5-yl]-N-{1-[(4-fluorophenyl)sulfonyl]piperidin-3-yl}pyrimidin-2-amine], for which the IC50 (read-out: Mutant B-RAF IC50) came out at 458 nM.

As a reminder, the inhibition is the share of the control response that was lost under treatment. With `Fc1ccc(CN2CCCC(Nc3nccc(-c4c(-c5ccc(F)cc5)nc5sccn45)n3)C2)cc1` (stereo not drawn) [Example 4], the inhibition at 10 µM is 55%.

For `Cc1ccc(NC(=O)N2CCC[C@@H](Nc3nccc(-c4c(-c5ccc(F)cc5)nc5occn45)n3)C2)cc1` [Example 17], the inhibition at 10 µM turned out to be 16%.

Consider `CN(C)c1ccc(NC(=O)N2CCC[C@@H](Nc3nccc(-c4c(-c5ccc(F)cc5)nc5occn45)n3)C2)cc1` [Example 24, (3R)-N-[4-(dimethyl-amino)phenyl]-3-({4-[6-(4-fluorophenyl)imidazo[2,1-b][1,3]oxazol-5-yl]pyrimidin-2-yl}amino)piperidine-1-carboxamide], for which the inhibition at 10 µM was determined as 60%.

Consider `O=C(NCc1ccco1)N1CCC[C@@H](Nc2nccc(-c3c(-c4ccc(F)cc4)nc4occn34)n2)C1` [Example 25, (3R)-3-({4-[6-(4-fluorophenyl)imidazo[2,1-b][1,3]oxazol-5-yl]pyrimidin-2-yl}amino)-N-(2-furylmethyl)piperidine-1-carboxamide], for which the inhibition at 10 µM stood at 35%.

Regarding `O=C(c1ccccc1)N1CCC[C@@H](Nc2nccc(-c3c(-c4ccc(F)cc4)nc4occn34)n2)C1` [Example 26, N-[(3R)-1-benzoylpiperidin-3-yl]-4-[6-(4-fluorophenyl)imidazo[2,1-b][1,3]oxazol-5-yl]pyrimidin-2-amine], under “read-out: Mutant B-RAF IC50”, the IC50 stood at 195 nM.

As for `COc1ccc(C(=O)N2CCC[C@@H](Nc3nccc(-c4c(-c5ccc(F)cc5)nc5occn45)n3)C2)cc1` [Example 27, 4-[6-(4-fluorophenyl)imi-dazo[2,1-b][1,3]oxazol-5-yl]-N-[(3R)-1-(4-methoxy-benzoyl)piperidin-3-yl]pyri-midin-2-amine], it took 4890 nM to reach half-maximal inhibition (IC50).

Take `O=C(c1ccc(F)cc1)N1CCC[C@@H](Nc2nccc(-c3c(-c4ccc(F)cc4)nc4occn34)n2)C1` [Example 28, N-[(3R)-1-(4-fluorobenzoyl)piperidin-3-yl]-4-[6-(4-fluorophenyl)imi-dazo[2,1-b][1,3]oxazol-5-yl]pyrimidin-2-amine]: the midpoint of inhibition, the IC50, lay at 184 nM.

For the compound `O=C(COc1ccc(Cl)cc1)N1CCC[C@@H](Nc2nccc(-c3c(-c4ccc(F)cc4)nc4occn34)n2)C1` [Example 29, N-{(3R)-1-[(4-chlorophenoxy)acetyl]piper-idin-3-yl}-4-[6-(4-fluorophenyl)imidazo[2,1-b][1,3]oxazol-5-yl]pyrimidin-2-amine], the IC50 (read-out: Mutant B-RAF IC50) stood at 1820 nM.

For the compound `COCC(=O)N1CCC[C@@H](Nc2nccc(-c3c(-c4ccc(F)cc4)nc4occn34)n2)C1` [Example 30, 4-[6-(4-fluorophenyl)imi-dazo[2,1-b][1,3]oxazol-5-yl]-N-[(3R)-1-(methoxyacetyl)piperidin-3-yl]pyrimidin-2-amine], half-maximal inhibition (IC50) was put at 711 nM.

Consider `O=C(C1CCCCC1)N1CCC[C@@H](Nc2nccc(-c3c(-c4ccc(F)cc4)nc4occn34)n2)C1` [Example 31, N-[(3R)-1-(cyclohexylcarbonyl)piperidin-3-yl]-4-[6-(4-fluorophenyl)imidazo[2,1-b][1,3]oxazol-5-yl]pyrimidin-2-amine], for which, under “read-out: Mutant B-RAF IC50”, the IC50 was 2950 nM.
